Experimental findings from patent EP3046573B1, “AMYLIN ANALOGUES” (Zealand Pharma A/S, priority 2013, dated 2015) are described below.

Numbered stars: 1 amine (or outer) side, 2 acyl side, 3 side chain; on linkers, the order of the positions; unused ones are H or OH. Bridge positions count the residues as written; N and C are the ends. Square brackets hold non-standard residues; d marks the D form. Peptide text beside a SMILES is read from it. * marks the point of attachment. C20 diacid = O=C(O)CCCCCCCCCCCCCCCCCCC(=O)*; γGlu = O=C(O)[C@H](CCC(=O)[*:2])N[*:1]; NMeY = CN[C@@H](Cc1ccc(O)cc1)C(=O)O; NMeI = CC[C@H](C)[C@H](NC)C(=O)O; Sar = CNCC(=O)O

A short description of data set [1]: Assessment of chemical stability: normalized purity by RP-HPLC after incubation at 40 °C. The class given is physicochemical. The following applies: normalized purity (T=0 set to 100), 0.2 mg/ml. On the procedure:
Samples of each test peptide were dissolved in MilliQ™ water, and the pH of the solution was adjusted to pH 4, pH 7.5 or pH 9, respectively, using either HCI or NaOH. The final peptide concentration was 0.2 mg/ml. Samples were placed in glass vials and incubated at 40 °C. The samples were analyzed by RP-HPLC on a C8 column with gradient elution using an ammonium formate/water eluent system, or on a C18 column with gradient elution using a trifluoroacetic acid/water eluent system. The area-percentage (area-%) of the main peak after incubation time T = t (relative to time T = 0) was determined by UV spectroscopy at 220 nm.
The purity was first determined as follows: Purity(area−%) = (area of main peak/total area of all peaks) × 100. [formula]
The purity was then normalized between time points by setting purity at time 0 (T=0) to 100 for each pH value for a given peptide, as follows: Normalised area−%at time t(T = t) = [area−%(T = t)/area−%(T = 0)] × 100. [formula]
The normalized purity values in Table 2 were determined after 7 days of incubation. Table 2. EC50, chemical stability and fibrillation data for compounds of the invention

Data set [2] has as its target T1, human calcitonin receptor (hCTR2) (Homo sapiens, UniProt P30988).
T1 construct: expressed in transfected cells
T1 sequence (P30988 25-474): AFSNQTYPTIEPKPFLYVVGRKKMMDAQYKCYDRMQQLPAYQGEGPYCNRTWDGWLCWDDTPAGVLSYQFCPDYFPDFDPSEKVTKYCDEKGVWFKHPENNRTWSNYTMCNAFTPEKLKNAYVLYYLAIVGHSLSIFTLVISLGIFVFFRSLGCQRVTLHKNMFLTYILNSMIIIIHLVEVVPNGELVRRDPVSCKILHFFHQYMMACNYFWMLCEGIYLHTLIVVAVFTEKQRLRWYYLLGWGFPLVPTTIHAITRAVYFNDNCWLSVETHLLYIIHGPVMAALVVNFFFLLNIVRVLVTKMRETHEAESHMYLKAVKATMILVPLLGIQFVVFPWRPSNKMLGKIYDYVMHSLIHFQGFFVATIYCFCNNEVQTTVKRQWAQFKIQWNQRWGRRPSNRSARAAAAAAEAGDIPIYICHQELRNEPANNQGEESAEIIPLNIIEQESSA
The data set can be described thus: hCTR2 assay: induction of cAMP (AlphaScreen cAMP Assay kit) in COS7 cells expressing hCTR2. It is filed as cell-based. In outline:
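cAMP induction was measured by AlphaScreen in COS7 cells stably expressing hCTR2 without RAMPs, after 15 min at 37° C with increasing peptide concentrations, 100 µM IBMX and 0.1% casein (Tyrode, pH 7.4). A 4-parameter logistic fit gave EC50 and % efficacy versus pramlintide.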
For orientation: Bead proximity is the source of the signal in Alpha formats.

The nature of data set [3]: Solubility assessment (turbidity absorbance at 325 nm). The class given is physicochemical. The following applies: stock 2 mg/ml diluted 1:1, ambient temperature (typically 25°C), n=1. In outline: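 Turbidimetric screen across pH 4.0–7.5 in 100 mM acetate, histidine and phosphate buffers. A 2 mg/ml peptide stock (pH 2.5) was diluted 1:1 into each, then A325 measured at ambient temperature; values ≤ 0.02 AU denoted solubility of 1 mg/ml or more.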

For data set [4], the system named is Sprague Dawley (SD) rats. The data set can be described thus: Acute food intake and body weight in normal Sprague Dawley rats. It is filed as in vivo. The conditions noted are these: vehicle-corrected, dose 30 nmol/kg sc, once. Here is the method:
Sprague Dawley (SD) rats were obtained from Taconic A/S, Denmark. The animals arrived at least 7 days before the study start to allow acclimatization to experimental conditions. From arrival and throughout the study, the rats were housed in groups of 2 (n = 2) in a light-, temperature- and humidity-controlled room (reversed 12/12 h light/dark cycle: lights turned off during day-time and on during night-time; temperature 20-22°C; relative humidity 50-80%). Animals had access ad libitum to food (Altromin™ 1324, Brogaarden A/S, Gentofte, Denmark) and water (domestic quality tap water with citric acid added to pH ∼ 3.6) during the entire study. Stratification of rats was based on body weight (BW) on a cage-by-cage basis; mean BWs per cage were used as the basis for pairing four cages together in a group (n = 8 per group). A vehicle group and positive control group were included in each set of tests. Rats were dosed subcutaneously (sc) once in the morning immediately before turning off the lights, using a body weight-corrected dose of peptide (30 nmol/kg). Dosing volume was 5 ml/kg. Food intake was recorded manually at t = 0 (pre-dose) and at t = 4, 7, 10, 24, 48, 72 and 96 hours after dosing. Body weight was measured daily.
Statistical analyses on body weight were performed using GraphPad™ Prism version 5. The measured parameters were compared using unpaired t tests. Differences were considered statistically significant at p < 0.05. Data are means ± SEM; n =8.

A short description of data set [5]: Assessment of physical stability: fibril formation detected with Thioflavin T (ThT), lag-time. It is filed as physicochemical. The following applies: 1 mg/ml peptide, 40 µM ThT, FND = Fibrillation not detected. Here is the method: Solutions containing (i) 1 mg/ml of test peptide, 40 µM ThT and 50 mM phosphate (Ph) buffer (pH 7.0), (ii) 1 mg/ml of test peptide, 40 µM ThT and 50 mM histidine (His) buffer (pH 7.0), and (iii) 1 mg/ml of test peptide, 40 µM ThT and 50 mM acetate (Ac) buffer (pH 4.0), were loaded in a 96-well black fluorescence plate (clear bottom) in triplicate. Data were collected at fixed intervals of 10 min, each preceded by 300 s of automixing (agitation), over a period of 96 hours at 40° C. Physical stability, expressed as lag-time of fibril formation (in hours), was defined as the intersection between two linear regressions representing the initial stable phase and the growth phase.

With `CC[C@H](C)[C@@H](C(=O)N[C@@H](CC(C)C)C(=O)N[C@@H](CO)C(=O)N[C@@H](CO)C(=O)N[C@H](C(=O)N[C@@H](CC(N)=O)C(=O)N[C@H](C(=O)NCC(=O)N[C@@H](CO)C(=O)N[C@@H](CC(N)=O)C(=O)N[C@H](C(=O)N1CCC[C@H]1C(N)=O)[C@@H](C)O)C(C)C)[C@@H](C)O)N(C)C(=O)[C@H](C)NC(=O)CN(C)C(=O)[C@H](Cc1ccccc1)NC(=O)[C@H](CC(N)=O)NC(=O)[C@H](CC(N)=O)NC(=O)[C@@H](CO)NC(=O)[C@H](CO)NC(=O)[C@H](Cc1c[nH]cn1)NC(=O)[C@H](Cc1c[nH]cn1)NC(=O)[C@H](CC(C)C)NC(=O)[C@H](Cc1ccccc1)NC(=O)[C@H](CCC(=O)O)NC(=O)[C@H](C)NC(=O)[C@H](CC(C)C)NC(=O)[C@H](CCCNC(=N)N)NC(=O)[C@H](CCC(N)=O)NC(=O)[C@@H](NC(=O)[C@H](C)NC(=O)[C@@H]1CSSC[C@H](NC(=O)[C@H](CCCNC(=N)N)NC(=O)CC[C@H](NC(=O)CCCCCCCCCCCCCCCCCCC(=O)O)C(=O)O)C(=O)N[C@@H](CC(N)=O)C(=O)N[C@@H]([C@@H](C)O)C(=O)N[C@@H](C)C(=O)N[C@@H]([C@@H](C)O)C(=O)N1)[C@@H](C)O` [Compound 31, [19CD]-isoGlu-RC()NTATC()ATQRLAEFLHHS-DSer-NNF-Gly(Me)-A-Ile(Me)-LSSTNVGSNTP-NH2] ({C20 diacid-γGlu}-RCNTATCATQRLAEFLHHS[dS]NNF[Sar]A[NMeI]LSSTNVGSNTP-NH2; disulfide 2-7), in data set [1] (pH 4, 7 days), the “Chem. stability; 7 days, 40°C pH 4” value is recorded as 80 area-%. In addition, the “Chem. stability; 7 days, 40°C pH 7.5” value in data set [1] (pH 7.5, 7 days) came out at 66 area-%.
One may read the EC50 as the concentration at which the effect is half-maximal. Regarding `CC[C@H](C)[C@@H](C(=O)N[C@@H](CC(C)C)C(=O)N[C@@H](CO)C(=O)N[C@@H](CO)C(=O)N[C@H](C(=O)N[C@@H](CC(N)=O)C(=O)N[C@H](C(=O)NCC(=O)N[C@@H](CO)C(=O)N[C@@H](CC(N)=O)C(=O)N[C@H](C(=O)N(C)[C@@H](Cc1ccc(O)cc1)C(N)=O)[C@@H](C)O)C(C)C)[C@@H](C)O)N(C)C(=O)[C@H](C)NC(=O)CN(C)C(=O)[C@H](Cc1ccccc1)NC(=O)[C@H](CC(N)=O)NC(=O)[C@H](CC(N)=O)NC(=O)[C@H](CO)NC(=O)[C@H](CO)NC(=O)[C@H](Cc1c[nH]cn1)NC(=O)[C@H](Cc1c[nH]cn1)NC(=O)[C@H](CC(C)C)NC(=O)[C@H](Cc1ccccc1)NC(=O)[C@H](CCC(=O)O)NC(=O)[C@H](C)NC(=O)[C@H](CC(C)C)NC(=O)[C@H](CCCNC(=N)N)NC(=O)[C@H](CCC(N)=O)NC(=O)[C@@H](NC(=O)[C@H](C)NC(=O)[C@@H]1CSSC[C@H](NC(=O)[C@H](CCCNC(=N)N)NC(=O)CC[C@H](NC(=O)CCCCCCCCCCCCCCCCCCC(=O)O)C(=O)O)C(=O)N[C@@H](CC(N)=O)C(=O)N[C@@H]([C@@H](C)O)C(=O)N[C@@H](C)C(=O)N[C@@H]([C@@H](C)O)C(=O)N1)[C@@H](C)O` [Compound 61, [19CD]-isoGlu-RC()NTATC()ATQRLAEFLHHSSNNF-Gly(Me)-A-Ile(Me)-LSSTNVGSNT-Tyr(Me)-NH2] ({C20 diacid-γGlu}-RCNTATCATQRLAEFLHHSSNNF[Sar]A[NMeI]LSSTNVGSNT[NMeY]-NH2; disulfide 2-7), the EC50 in data set [2] stood at 0.3 nM. Also, the “Solubility, Acetate buffer pH 4” value in data set [3] (100 mM acetate buffer pH 4.0) is “SS (SS indicates solubility ≥ 1mg/ml)”. Further, in data set [3] (100 mM acetate buffer pH 5.0), the “Solubility, Acetate buffer pH 5” value was “SS (SS indicates solubility ≥ 1mg/ml)”. The “Solubility, Histidine buffer pH 6” value in data set [3] (100 mM histidine buffer pH 6.0) was “II (II indicates solubility ≤ 1 mg/ml)”. Also, in data set [3] (100 mM histidine buffer pH 7.0), the “Solubility, Histidine buffer pH 7” value was “II (II indicates solubility ≤ 1 mg/ml)”. Also, the “Solubility, Phosphate buffer pH 6” value in data set [3] (100 mM phosphate buffer pH 6.0) is listed as “II (II indicates solubility ≤ 1 mg/ml)”. Also, in data set [3] (100 mM phosphate buffer pH 7.0), the “Solubility, Phosphate buffer pH 7” value is on record as “II (II indicates solubility ≤ 1 mg/ml)”. Besides, the “Solubility, Phosphate buffer pH 7.5” value in data set [3] (100 mM phosphate buffer pH7.5) is on record as “II (II indicates solubility ≤ 1 mg/ml)”. Also, the “Food intake inhibition (%) after 48 hours” value in data set [4] (48 hours) worked out at 24%. Moreover, in data set [4] (mean ± SEM, 96 hours, n = 8), the “Body weight loss (%) after 96 hours” value is reported as 1 ± 1.6 %. Moreover, the “Fibrillation lag time (hours) pH 4.0 (Ac)” value in data set [5] (50 mM acetate buffer pH 4.0, 96 hours at 40°C) is recorded as “FND”. Further, in data set [5] (50 mM histidine buffer pH 7.0, 96 hours at 40°C), the “Fibrillation lag time (hours) pH 7.0 (His)” value came out at 3 hours. Moreover, the “Fibrillation lag time (hours) pH 7.0 (Ph)” value in data set [5] (50 mM phosphate buffer pH 7.0, 96 hours at 40°C) is listed as 3 hours.
